Experimental data as given in ChEMBL document CHEMBL4371049, “Semi-synthesis and anti-tumor activity of novel 25-OCH3-PPD derivatives incorporating aromatic moiety” (Bioorg Med Chem Lett, 2019).

Key:
Assay type in all cases: functional, cell-based
DU-145 = assay: Antiproliferative activity against human DU145 cells after 48 hrs by MTT assay; details: DU-145, 48 h
HepG2 = assay: Antiproliferative activity against human HepG2 cells after 48 hrs by MTT assay; details: HepG2, 48 h
MCF7 = assay: Antiproliferative activity against human MCF7 cells after 48 hrs by MTT assay; details: MCF7, 48 h
BGC-823 = assay: Antiproliferative activity against human BGC823 cells after 48 hrs by MTT assay; details: BGC-823, 48 h
PC-3 = assay: Antiproliferative activity against human PC3 cells after 48 hrs by MTT assay; details: PC-3, 48 h

Row | IC50 (DU-145) [µM] | IC50 (HepG2) [µM] | IC50 (MCF7) [µM] | IC50 (BGC-823) [µM] | IC50 (PC-3) [µM] | SMILES
1 | 33.1 | 26.7 | 20.8 | 25.8 | 23.5 | COC(C)(C)CCC[C@@](C)(O)[C@H]1CC[C@]2(C)[C@@H]1[C@H](O)C[C@@H]1[C@@]3(C)CC[C@H](OC(=O)/C=C/c4ccc(Cl)cc4)C(C)(C)[C@@H]3CC[C@]12C
2 | > 50 | 41.5 | 36.4 | > 50 | > 50 | COC(C)(C)CCC[C@@](C)(O)[C@H]1CC[C@]2(C)[C@@H]1[C@H](OC(=O)c1ccc(Cl)cc1)C[C@@H]1[C@@]3(C)CC[C@H](OC(=O)c4ccc(Cl)cc4)C(C)(C)[C@@H]3CC[C@]12C
3 | > 50 | > 50 | > 50 | > 50 | > 50 | COC(C)(C)CCC[C@@](C)(O)[C@H]1CC[C@]2(C)[C@@H]1[C@H](OC(=O)/C=C/c1ccccc1)C[C@@H]1[C@@]3(C)CC[C@H](OC(=O)/C=C/c4ccccc4)C(C)(C)[C@@H]3CC[C@]12C
4 | 28.7 | 18.9 | 15.6 | 34.4 | 39.9 | COC(C)(C)CCC[C@@](C)(O)[C@H]1CC[C@]2(C)[C@@H]1[C@H](O)C[C@@H]1[C@@]3(C)CC[C@H](OC(=O)c4cc(F)ccc4Br)C(C)(C)[C@@H]3CC[C@]12C
5 | 30.7 | 28.8 | 29.4 | > 50 | > 50 | COC(C)(C)CCC[C@@](C)(O)[C@H]1CC[C@]2(C)[C@@H]1[C@H](O)C[C@@H]1[C@@]3(C)CC[C@H](OC(=O)c4cc(I)ccc4Cl)C(C)(C)[C@@H]3CC[C@]12C
6 | 40.1 | 26.4 | 35 | 28.7 | 37.2 | COC(C)(C)CCC[C@@](C)(O)[C@H]1CC[C@]2(C)[C@@H]1[C@H](O)C[C@@H]1[C@@]3(C)CC[C@H](OC(=O)/C=C/c4ccccc4)C(C)(C)[C@@H]3CC[C@]12C
7 | 19.2 | 20.6 | 25.3 | 17.4 | 16.7 | COC(C)(C)CCC[C@@](C)(O)[C@H]1CC[C@]2(C)[C@@H]1[C@H](O)C[C@@H]1[C@@]3(C)CC[C@H](OC(=O)c4ccc([N+](=O)[O-])cc4)C(C)(C)[C@@H]3CC[C@]12C
8 | 20.6 | 26.9 | 23.7 | 18 | 17.6 | COC(C)(C)CCC[C@@](C)(O)[C@H]1CC[C@]2(C)[C@@H]1[C@H](O)C[C@@H]1[C@@]3(C)CC[C@H](OC(=O)/C=C/c4ccc(F)cc4)C(C)(C)[C@@H]3CC[C@]12C
9 | 44.6 | > 50 | 38.2 | > 50 | > 50 | COC(C)(C)CCC[C@@](C)(O)[C@H]1CC[C@]2(C)[C@@H]1[C@H](OC(=O)c1cc([N+](=O)[O-])cc([N+](=O)[O-])c1)C[C@@H]1[C@@]3(C)CC[C@H](OC(=O)c4cc([N+](=O)[O-])cc([N+](=O)[O-])c4)C(C)(C)[C@@H]3CC[C@]12C
10 | 18.5 | 19.2 | 15.6 | 28.1 | 22 | COC(C)(C)CCC[C@@](C)(O)[C@H]1CC[C@]2(C)[C@@H]1[C@H](O)C[C@@H]1[C@@]3(C)CC[C@H](OC(=O)c4ccccc4Cl)C(C)(C)[C@@H]3CC[C@]12C
11 | 6.7 | 5.8 | 4.3 | 7.1 | 11.4 | COC(C)(C)CCC[C@@](C)(O)[C@H]1CC[C@]2(C)[C@@H]1[C@H](O)C[C@@H]1[C@@]3(C)CC[C@H](OC(=O)c4ccc(F)cc4F)C(C)(C)[C@@H]3CC[C@]12C
12 | > 50 | > 50 | > 50 | > 50 | > 50 | COC(C)(C)CCC[C@@](C)(O)[C@H]1CC[C@]2(C)[C@@H]1[C@H](OC(=O)c1ccccc1)C[C@@H]1[C@@]3(C)CC[C@H](OC(=O)c4ccccc4)C(C)(C)[C@@H]3CC[C@]12C
13 | > 50 | > 50 | > 50 | > 50 | > 50 | COC(C)(C)CCC[C@@](C)(O)[C@H]1CC[C@]2(C)[C@@H]1[C@H](OC(=O)c1ccccc1)C[C@@H]1[C@@]3(C)CC[C@H](O)C(C)(C)[C@@H]3CC[C@]12C
14 | 29.7 | > 50 | 37.2 | 48.6 | > 50 | COC(C)(C)CCC[C@@](C)(O)[C@H]1CC[C@]2(C)[C@@H]1[C@H](OC(=O)c1ccccc1[N+](=O)[O-])C[C@@H]1[C@@]3(C)CC[C@H](OC(=O)c4ccccc4[N+](=O)[O-])C(C)(C)[C@@H]3CC[C@]12C
15 | 34.6 | 41.8 | > 50 | > 50 | > 50 | COC(C)(C)CCC[C@@](C)(O)[C@H]1CC[C@]2(C)[C@@H]1[C@H](OC(=O)/C=C/c1ccc(F)cc1)C[C@@H]1[C@@]3(C)CC[C@H](OC(=O)/C=C/c4ccc(F)cc4)C(C)(C)[C@@H]3CC[C@]12C
16 | 8.6 | 10.3 | 6.4 | 5.3 | 13.5 | COC(C)(C)CCC[C@@](C)(O)[C@H]1CC[C@]2(C)[C@@H]1[C@H](O)C[C@@H]1[C@@]3(C)CC[C@H](OC(=O)c4cccc(F)c4)C(C)(C)[C@@H]3CC[C@]12C
17 | > 50 | > 50 | > 50 | > 50 | > 50 | COC(C)(C)CCC[C@@](C)(O)[C@H]1CC[C@]2(C)[C@@H]1[C@H](OC(=O)c1ccc(I)cc1)C[C@@H]1[C@@]3(C)CC[C@H](O)C(C)(C)[C@@H]3CC[C@]12C
18 | > 50 | > 50 | > 50 | > 50 | > 50 | COC(C)(C)CCC[C@@](C)(O)[C@H]1CC[C@]2(C)[C@@H]1[C@H](OC(=O)/C=C/c1ccccc1)C[C@@H]1[C@@]3(C)CC[C@H](O)C(C)(C)[C@@H]3CC[C@]12C
19 | > 50 | > 50 | 48.2 | > 50 | > 50 | COC(C)(C)CCC[C@@](C)(O)[C@H]1CC[C@]2(C)[C@@H]1[C@H](O)C[C@@H]1[C@@]3(C)CC[C@H](OC(=O)c4cc(C)cc(C)c4)C(C)(C)[C@@H]3CC[C@]12C
20 | > 50 | > 50 | > 50 | > 50 | > 50 | COC(C)(C)CCC[C@@](C)(O)[C@H]1CC[C@]2(C)[C@@H]1[C@H](OC(=O)c1ccc([N+](=O)[O-])cc1)C[C@@H]1[C@@]3(C)CC[C@H](OC(=O)c4ccc([N+](=O)[O-])cc4)C(C)(C)[C@@H]3CC[C@]12C
21 | 31.8 | > 50 | 46.3 | > 50 | > 50 | COC(C)(C)CCC[C@@](C)(O)[C@H]1CC[C@]2(C)[C@@H]1[C@H](O)C[C@@H]1[C@@]3(C)CC[C@H](OC(=O)c4ccc(I)cc4)C(C)(C)[C@@H]3CC[C@]12C
22 | 46.2 | 38.4 | > 50 | > 50 | > 50 | COC(C)(C)CCC[C@@](C)(O)[C@H]1CC[C@]2(C)[C@@H]1[C@H](O)C[C@@H]1[C@@]3(C)CC[C@H](OC(=O)c4cccc(C)c4)C(C)(C)[C@@H]3CC[C@]12C
23 | 13.4 | 14.5 | 11.7 | 9.5 | 7.5 | COC(C)(C)CCC[C@@](C)(O)[C@H]1CC[C@]2(C)[C@@H]1[C@H](O)C[C@@H]1[C@@]3(C)CC[C@H](OC(=O)c4cc([N+](=O)[O-])cc([N+](=O)[O-])c4)C(C)(C)[C@@H]3CC[C@]12C
